This note sets out measurements from patent US10183019B2, “Treatment of cancer with dihydropyrazino-pyrazines” (Signal Pharmaceuticals, LLC, priority 2013, dated 2019).

Usually IC50 stands for the point on the concentration scale where inhibition reaches its midpoint.

The subject of assay [1] is patient-derived GBM cell line 217. Description: Combination effect of Compound 1 and TMZ on cell survival (fractional product). Type of assay: cell-based. Conditions: 168 h, Cmpd 1 100 nM alone, 7 days, read-out: % Actual inh. The source says: (§1) TMZ is an alkylating agent that delivers a methyl group to the purine bases of DNA (O^6-guanine; N^7-guanine and N^3-adenine). The cytotoxic lesion, O^6-methylguanine (O^6-MeG), caused by TMZ can be directly removed by methylguanine methyltransferase (MGMT) via direct repair and can also activate mechanisms of mismatch repair (MMR). Futile cycles of MMR lead to the formation of double-stranded DNA breaks and activation of the DNA-PK mediated mechanisms of double-stranded break repair.
(§2) Tumorspheres grown under tumorsphere culture conditions were harvested, dissociated into single cells, and plated at 5,000 cells/well in 96-well plates. […] When the value of the column % actual inhibition divided by % inhibition calculated based on summation is >1=synergism, ˜1=summation, <1=antagonism.

The test system of assay [2] is patient-derived GBM cell line 206. The assay is described as above. It counts as cell-based. To be noted: 168 h, 7 days, read-out: % Actual inh.
Text: as §1, §2

Assay [3] concerns patient-derived GBM cell line 309. Description: Gliomasphere Formation Assay. It counts as cell-based. Conditions: cell line 309, Recurrent, MGMT ND; 50% sphere formation vs DMSO control. On the procedure: (§3) Primary patient-derived GBM tumor samples were dissociated and plated under culture conditions (i.e. DMEM/F12 medium supplemented with B27, 20 ng/mL bFGF, 50 ng/mL EGF, penicillin/streptomycin, L-glutamine and 5 ug/mL heparin) that produce gliomaspheres. Cells were plated at a density of 50 cells per well and allowed to acclimate overnight at 37° C. The Dihydropyrazino-Pyrazine Compounds were added to the cultures on Day 2 and replenished every 7 days. EGF and FGF were also replenished every 7 days. The cells were fixed with PFA/methanol when the smallest sphere was greater than 60 microns, typically 3-5 weeks. The cells were fixed with PFA/methanol and the next day assessed for cell number, using for example, SYTO-9 fluorescent DNA dye. Plates were read 48 h later with a laser scanning imager.

In assay [4] the test system is patient-derived GBM cell line 282. The assay can be described thus: Gliomasphere Formation Assay. Type of assay: cell-based. Conditions: cell line 282, Primary, MGMT ND; 50% sphere formation vs DMSO control. On the procedure: as §3
Assay [5] concerns patient-derived GBM cell line 296. Description: Gliomasphere Formation Assay. Type of assay: cell-based. To be noted: cell line 296, Recurrent, MGMT status −; 50% sphere formation vs DMSO control. On the procedure: as §3
Assay [6] has as its system patient-derived GBM cell line 250. Description: Gliomasphere Formation Assay. Conditions: cell line 250, Recurrent, MGMT Unkn/Highly Expressed; 50% sphere formation vs DMSO control. It counts as cell-based. On the procedure:
as §3

Assay [7] concerns patient-derived GBM cell line 245. The assay can be described thus: Gliomasphere Formation Assay. Type of assay: cell-based. To be noted: cell line 245, Recurrent; 50% sphere formation vs DMSO control. On the procedure:
as §3

The subject of assay [8] is patient-derived GBM cell line 217. Description: Gliomasphere Formation Assay. Type of assay: cell-based. Conditions: cell line 217, Primary; 50% sphere formation vs DMSO control. On the procedure: as §3
The test system of assay [9] is patient-derived GBM cell line 350. The assay can be described thus: Gliomasphere Formation Assay. Type of assay: cell-based. To be noted: cell line 350, Recurrent; 50% sphere formation vs DMSO control. On the procedure:
as §3

Assay [10] concerns patient-derived GBM cell line 206. Description: Gliomasphere Formation Assay. It counts as cell-based. To be noted: cell line 206, Recurrent, MGMT Unkn/Highly Expressed; 50% sphere formation vs DMSO control. On the procedure:
as §3

The test system of assay [11] is patient-derived GBM cell line 282. Description: Sphere-Reformation Assay. Type of assay: cell-based. Conditions: 7 day pre-treatment, various doses (100 nM and 500 nM not tested). On the procedure: (§4) Tumorsphere lines 206, 217, 254 and 282 in FIGS. 1A, 1B, 1C and 1D, respectively, were dissociated and plated as single cells at a density of 50,000 cells/ml of tumorsphere media in a total of 10 mL per T-25 cell culture flask and 5 flasks per cell line. […] 60 wells were plated from each flask of cells. Tumorspheres were allowed to grow until they achieved at least 60 microns in diameter before they were counted. The percentage of tumorsphere formation was calculated as the number of tumorspheres counted divided by the number of cells seeded times the plating efficiency of the control.
(§5) Patient-derived GBM cell lines cultured under tumorsphere culture conditions maintain a highly heterogenous population of cells, including both sphere-initiating cells, as well as more committed progenitor cells with limited proliferative capabilities. To determine if Compound 1 specifically targets the sphere-initiating cell population, we performed a sphere re-formation assay after Compound 1 pre-treatment. […] Compound 1 may target both the sphere-initiating cells as well as the more committed progenitor cells thus the percentage of sphere-initiating cells in the culture remains constant after Compound 1 treatment.

Assay [12] has as its system patient-derived GBM cell line 254. The assay can be described thus: Sphere-Reformation Assay. It counts as cell-based. On the procedure: as §4, §5
The test system of assay [13] is patient-derived GBM cell line 217. The assay can be described thus: Sphere-Reformation Assay. Type of assay: cell-based. To be noted: 7 day pre-treatment, various doses. On the procedure:
as §4, §5

The subject of assay [14] is patient-derived GBM cell line 206. The assay can be described thus: Sphere-Reformation Assay. Conditions: 7 day pre-treatment, various doses. Type of assay: cell-based. On the procedure:
as §4, §5

The subject of assay [15] is HF2354 PDX (GBM neurosphere line HF2354). The assay can be described thus: Patient derived xenograft (PDX) survival study. Conditions: HF2354 PDX in nude mice; 5 mg/kg oral gavage once a day, Monday through Friday; monotherapy. Type of assay: in vivo, nude mouse. On the procedure:
FIG. 2: Kaplan-Meier survival analysis for HF2354 PDX line (end of study). Treatment schedule for survival (Rx) and target hit (TH) are indicated.
Immunocompromised mice (nude mouse NCRNU-M, TACONIC) were implanted with a GBM neurosphere line derived from fresh surgical specimens. The cell line was characterized as following:
Patient derived xenograft (PDX) treatments started four weeks prior to when the first animal was expected to become symptomatic. […] Control animals were administered vehicle alone. Target hit cohorts were treated with one dose of each compound and sacrificed 2 and 24 h later (n=3/group). As necessary, fluids and supplemental food were administered to ameliorate weight loss.
Background: Xenograft models place foreign cells or tissue in a host animal.

Regarding `CCN1C(=O)CNc2ncc(-c3ccc(-c4nc[nH]n4)nc3C)nc21` [Compound 1, 1-ethyl-7-(2-methyl-6-(1H-1,2,4-triazol-3-yl)pyridin-3-yl)-3,4-dihydropyrazino[2,3-b]pyrazin-2(1H)-one], the results for the inhibition at 0.1 µM in assay [1] and in [2] (Cmpd 1 100 nM alone) were 51% and 23.1%, respectively. Moreover, the inhibition at 0.05 µM in assay [2] (Cmpd 1 50 nM alone) was 10.6%. Besides, the inhibition at 0.5 µM in assay [2] (Cmpd 1 500 nM alone) came out at 65.8%. Besides, the IC50 in assay [3] came to 0.159 µM; in [4], 0.0258 µM; in assay [5], 0.544 µM; in [6], 0.0396 µM; in [7] it was 0.0226 µM; in [8], 0.0421 µM. For the same molecule, the figures for the IC50 in [9] and in assay [10] were 0.0393 µM and 0.142 µM, respectively. In addition, the “number of spheres formed by cells that survived pre-treatment vs control untreated cells” value in assay [11] is on record as “not significantly different”; in [12] (7 day pre-treatment, various doses) it was “not significantly different”; in assay [13] it was “not significantly different”; in assay [14], “not significantly different”. For the same molecule, in assay [12] (500 nM, 7 days), the “tumorsphere re-formation after pre-treatment” value is listed as “No tumorspheres re-formed”. The “survival (Kaplan-Meier)” value in assay [15] was “significantly increased survival”.
